{
  "source": "patent US11827704B2",
  "about": "“Antibody molecules to PD-1 and uses thereof” (Novartis AG, priority 2014, dated 2023)",
  "molecules": {"B1": {"name": "BAP049: murine anti-PD-1 monoclonal antibody; sequences in Table 1 (antibody, V domains shown)", "VH": "QVQLQQSGSELVRPGASVKLSCKASGYTFTTYWMHWVRQRPGQGLEWIGNIYPGTGGSNFDEKFKNRTSLTVDTSSTTAYMHLASLTSEDSAVYYCTRWTTGTGAYWGQGTLVTVSA", "VL": "DIVMTQSPSSLTVTAGEKVTMSCKSSQSLLDSGNQKNFLTWYQQKPGQPPKLLIFWASTRESGVPDRFTGSGSVTDFTLTISSVQAEDLAVYYCQNDYSYPCTFGGGTKLEIK"}},
  "key": {"[1]": {"system": "PD-L1 (CD274) mRNA in Hs.746.T tumor", "test": "TaqMan RT PCR of PD-L1 mRNA in Hs.746.T tumor xenograft", "format": "in vivo, human", "details": "Hs.746.T tumor (gastric cancer cell with cMET amplification & mutation) xenograft; FIG. 16"}, "[2]": {"system": "PD-L1 (CD274) surface expression in EBC-1 cells", "test": "Flow cytometry of PD-L1 surface expression in EBC-1 cells in vitro", "format": "cell-based, human", "details": "EBC-1 cells (NSCLC with cMET amplification); 10 nM, 100 nM, 1000 nM for 24, 48 and 72 hours; FIG. 15", "experimental": "PD-L1 (CD274) expression was analyzed in cancer cell lines treated with Compound A17. Cells were obtained from ATCC and cultured in vitro following ATCC directions. The cell lines used were previously characterized by the Cancer Cell Line Encyclopedia Project (broadinstitute.org/ccle/home).\nCells plated in six-well culture plates were treated with the Compound A17 at different concentrations (10 nM, 100 nM, and 1000 nM) for 24, 48 and 72 hours. Equal amount of vehicle (DMSO) was used as a control. Cells were washed with PBS and then harvested using a cell scraper.\nFor each reaction, 0.5-1×10^6 cells were stained with 20 μL of anti-human monoclonal PD-L1-PE antibody, clone M1H1 (BD) for 30-60 minutes at 4° C. Cells were washed twice and data was acquired using a Canto II with FACSDiva software (BD Bioscience). Data analysis was performed using FlowJo software (Tree Star). Mean fluorescence intensity (MFI) was determined by gating on single cells. Unstained cells were used as a gating control."}, "[3]": {"system": "PD-L1 (CD274) mRNA in UKE-1 tumors", "test": "TaqMan RT PCR of PD-L1 mRNA in UKE-1 tumor xenograft model", "format": "in vivo, human", "details": "tumor xenograft model bearing UKE-1 (MPN line with JAK2V617F mutation); FIG. 20"}, "[4]": {"system": "PD-L1 (CD274) mRNA in H3122 cells", "test": "TaqMan RT PCR of PD-L1 mRNA in H3122 cells in vitro", "format": "cell-based, human", "details": "H3122 (NSCLC with ALK translocation) in vitro; FIG. 17", "experimental": "(§1) TaqMan RT PCR assays were developed to detect changes of expression levels of PD-L1 (CD274) in cell lines and xenograft tumors. mRNA was isolated from frozen cell pellets or tumor fragments using the Qiagen RNeasy Mini kit. Isolated RNA was frozen at −80° C. RNA quality was checked and RNA was quantified using a 2100 Agilent Bioanalyzer following the protocol for the Agilent RNA 6000 Nano Kit. cDNA was prepared using a High Capacity RNA- to cDNA Kit (Applied Biosystems).\n(§2) Real-time PCR reactions were carried out in 20 μl total volume, including 10 μl of Universal PCR master mix (Applied Biosystems), 1 μl of human PD-L1 (CD274) probe/primer set (Applied Biosystems), and 8 μl of cDNA. Each sample was run in triplicate. The amount of cDNA produced from 25-50 ng of RNA in the reverse transcription reaction was used in each PCR reaction. Due to difference in mRNA levels between PD-L1 and GAPDH, the two real-time PCR reactions were done in separate tubes using same amount of cDNA. The real-time PCR reaction was run on the C1000 Thermal Cycle (BioRad) with the cycle program as follows: a 10 minute incubation at 95° C. followed by 40 cycles of 95° C. for 15 seconds and 60° C. for 1 minute. After the reaction was complete, the PD-L1 average Ct was normalized relative to each Ct value from the GAPDH reference reaction. Each normalized logarithmic value was then converted into a linear value."}, "[5]": {"system": "PD-L1 (CD274) mRNA in LOXIMV1 tumors", "test": "TaqMan RT PCR of PD-L1 mRNA in LOXIMV1 tumor xenograft model", "format": "in vivo, human", "details": "tumor xenograft model bearing LOXIMV1 (BRAF mutant melanoma); FIG. 18", "experimental": "as §1, §2"}, "[6]": {"system": "PD-L1 (CD274) mRNA in HEYA8 tumors", "test": "TaqMan RT PCR of PD-L1 mRNA in HEYA8 tumor xenograft model", "format": "in vivo, human", "details": "tumor xenograft model bearing HEYA8 (KRAS mutant ovarian cancer); FIG. 19", "experimental": "as §1, §2"}, "[7]": {"system": "CD8^+ T cells", "test": "Proliferation of CD8+ T cells activated with CMV peptides", "format": "cell-based", "details": "percentages of CD8+ cells that passed through at least n cell divisions (n=2, 4, 6)"}, "[8]": {"system": "IFN-γ expression", "format": "cell-based"}},
  "note": "Where two headings read alike, the source gives them in different places.",
  "data": [
    {"molecule": "CNC(=O)c1ccc(-c2cnc3ncc(Cc4ccc5ncccc5c4)n3n2)cc1F", "note": "[Compound A17, 2-fluoro-N-methyl-4-(7-(quinolin-6-ylmethyl)imidazo[1,2-b][1,2,4]triazin-2-yl)benzamide]", "values": [
      {"measurement": "PD-L1 expression (mRNA)", "setting": "[1]", "result": "Inhibition"},
      {"measurement": "surface expression of PD-L1 (flow cytometry)", "setting": "[2]", "result": "significant downregulation"}
    ]},
    {"molecule": "N#CC[C@H](C1CCCC1)n1cc(-c2ncnc3[nH]ccc23)cn1", "note": "[Compound A18, Ruxolitinib Phosphate]", "values": [
      {"measurement": "PD-L1 mRNA", "setting": "[3]", "result": "Downregulation"}
    ]},
    {"molecule": "Cc1cc(Nc2ncc(Cl)c(Nc3ccccc3S(=O)(=O)C(C)C)n2)c(OC(C)C)cc1C1CCNCC1", "note": "[Compound A23, ceritinib]", "values": [
      {"measurement": "PD-L1 mRNA", "setting": "[4]", "result": "Inhibition"}
    ]},
    {"molecule": "COC(=O)N[C@@H](C)CNc1nccc(-c2cn(C(C)C)nc2-c2cc(Cl)cc(NS(C)(=O)=O)c2F)n1", "note": "[Compound A29, Encorafenib]", "values": [
      {"measurement": "PD-L1 mRNA", "setting": "[5]", "result": "Downregulation"}
    ]},
    {"molecule": "Cn1cnc2c(F)c(Nc3ccc(Br)cc3F)c(C(=O)NOCCO)cc21", "note": "[Compound A34, Binimetinib]", "values": [
      {"measurement": "PD-L1 mRNA", "setting": "[6]", "result": "Downregulation"}
    ]},
    {"molecule": "B1", "values": [
      {"measurement": "proliferation of CD8+ T cells activated with CMV peptides", "setting": "[7]", "result": "increase proliferation"},
      {"measurement": "fold increase in IFN-γ expression", "setting": "[8]", "result": "2.8±0.8", "unit": "fold"},
      {"measurement": "fold increase in IFN-γ expression", "setting": "[8]; cells stimulated with Staphylococcal enterotoxin B (SEB) (3 μg/mL)", "result": "2.5±2.0", "unit": "fold"}
    ]}
  ]
}
